Source: US4540428A (priority 1983, dated 1985)

Columns and labels:
[1] = test system: soil urease; assay type: biochemical; details: for % Inhibition 40 microgram per gram soil: pH 7.2
[2] = test system: soil urease; experiment: Urea hydrolyzed as a function of time in soil at 35° C. (procedure of Example VI, FIG. 1); assay type: biochemical; details: 10 micrograms of urease inhibitor per gram of soil; for urease inhibiting activity at 35° C. (in words): soil at 35° C. (95° F.), period of 12 days, sampled every two days
Protocol: The drawing is a graph of urea hydrolyzed as a function of time at 35° C. using 10 micrograms of urease inhibitor per gram of soil.
Certain compounds were evaluated to determine their effectiveness as urease inhibitors. The inhibition tests were run in a New York State soil (Cazenovia sandy loam, pH 7.2). Evaluations (run in triplicate) consisted of applying 800 micrograms of test compound in 5 mL of water and 42.8 mg urea in 1 mL of water to 20 g of air-dry soil in a glass bottle. The bottle was capped with perforated aluminum foil and incubated at 25° C. for 3 days prior to extraction with 100 mL of 2M KCl solution containing 0.5 mg of phenylmercuric acetate. The extracts were then analyzed for remaining urea using an autoanalyzer. Percent inhibition was calculated as [formula] where A is urea recovered from unincubated sample (urea added to soil and immediately extracted); B is urea recovered from inhibited sample; and C is urea recovered from the control (uninhibited sample).
Employing the procedure of Example VI, the urease inhibiting activity at 35° C. of the prior art urease inhibitor, phenyl phosphorodiamidate, and N-(2-chloroethyl)phosphoric triamide were evaluated. In the evaluation, soil samples were taken every two days and analyzed for urea content.

[3] = test system: urease; details: stated as well known; cited from earlier work

SMILES | % Inhibition 1 microgram per gram soil [1] [%] | % Inhibition 40 microgram per gram soil [1] [%] | urease inhibiting activity at 35° C. (in words) [2] | inhibitory effect on urease at 25° C. (in words) [3] | time to essentially complete urea hydrolysis ([2]; soil at 35° C.)
NP(N)(=O)NCCCBr [Experiment 3] | 83 | 99 |  |  | 
NP(N)(=O)NCCCl [Experiment 1, N-2-Chloroethyl Phosphoric Triamide] |  |  | excellent inhibitor |  | 
NP(N)(=O)Oc1ccccc1 [phenyl phosphorodiamidate] |  |  | much less effective | excellent inhibitory effect | essentially complete urea hydrolysis after only six days
NP(N)(=O)NCCCl [Experiment 1] | 77 | 100 |  |  | 
